Values quoted from earlier work in PubChem BioAssay AID1259409 (Chemical Carcinogenesis Research Information System (CCRIS), 2018).

Tested on: rodent chemically induced tumor inhibition, incidence and multiplicity
Assay: CCRIS tumor inhibitor studies
Conditions: Carcinogen: 4-(METHYLNITROSAMINO)-1-(3-PYRIDYL)-1-BUTANONE, 64091-91-4, Promoter: NONE USED; for tumour outcome (control, treated, inhibition, significance): Dose [Inhibitor]: 0
Source text: The CCRIS database contains chemical records with carcinogenicity, mutagenicity, tumor promotion, and tumor inhibition test results. It was developed by the National Cancer Institute (NCI). Data are derived from studies cited in primary journals, current awareness tools, NCI reports, and other sources. Test results have been reviewed by experts in carcinogenesis and mutagenesis.
CCRIS provides historical information from the years 1985 - 2011. It is no longer updated.
This is an archive assay for CCRIS tumor inhibitor studies.

In the case of S=C=NCCc1ccccc1, the “tumour outcome (control, treated, inhibition, significance)” value (3 UMOL/G OF DIET FOR 112 WK BEGINNING 1 WK PRIOR TO CARCINOGEN TREATMENT (STUDY DURATION: 112 WK), Route [Inhibitor]: ORAL, Species: RAT, Strain/Sex: F344/MALE, Target Tissue: Type of Lesion: PANCREAS (EXOCRINE): MALIGNANT TUMOR, Dose [Carcinogen]: 2 PPM IN DRINKING WATER FOR 111 WK) is given as 4/52 (8%), 0/59 (0%), 100%, p=0.005, the “tumour outcome (control, treated, inhibition, significance)” value (5 UMOL 1/D FOR 4 D ADMINISTERED PRIOR TO CARCINOGEN DOSE (STUDY DURATION: 116 D), Route [Inhibitor]: GAVAGE, Species: MOUSE, Strain/Sex: STRAIN-A, Target Tissue: Type of Lesion: LUNG: ADENOMA, Dose [Carcinogen]: 10 UMOL IN SALINE ADMINISTERED 2 HR POST LAST AGENT DOSE) is given as 100%, 93%, 7%, not calculated and the “tumour outcome (control, treated, inhibition, significance)” value (5 UMOL 1/D FOR 4 D ADMINISTERED PRIOR TO CARCINOGEN TREATMENT (STUDY DURATION: 116 D), Route [Inhibitor]: GAVAGE, Species: MOUSE, Strain/Sex: STRAIN A, Target Tissue: Type of Lesion: LUNG: ADENOMA, Dose [Carcinogen]: 10 UMOL ONCE 2 HR AFTER FINAL DOSE OF INHIBITOR) is given as 100%, 93%, 7%, not significant. For the same compound, the “tumour outcome (control, treated, inhibition, significance)” value (5 UMOL 1/D FOR 4 DAYS ADMINISTERED PRIOR TO CARCINOGEN TREATMENT (STUDY DURATION: 116 D), Route [Inhibitor]: GAVAGE, Species: MOUSE, Strain/Sex: STRAIN-A, Target Tissue: Type of Lesion: LUNG: ADENOMA, Dose [Carcinogen]: 10 UMOL ONCE 2 HR AFTER FINAL DOSE OF INHIBITOR) was 100%, 89%, 11%, not significant, the “tumour outcome (control, treated, inhibition, significance)” value (5 UMOL/D ADMINISTERED TO MICE HETEROZYGOUS (P53+/-) FOR P53 ALLELES FOR 4 CONSECUTIVE DAYS PRIOR TO CARCINOGEN DOSE (, Route [Inhibitor]: GAVAGE, Species: MOUSE, Strain/Sex: (A/J X TSG-P53)F1/FEMALE, Target Tissue: Type of Lesion: LUNG: ADENOMA, Dose [Carcinogen]: 10 UMOL ONCE) was 100%, 40%, 60%, p<0.0001 and the “tumour outcome (control, treated, inhibition, significance)” value (5 UMOL/D ADMINISTERED TO MICE HOMOZYGOUS (P53+/+) FOR P53 ALLELES FOR 4 CONSECUTIVE DAYS PRIOR TO CARCINOGEN DOSE (ST, Route [Inhibitor]: GAVAGE, Species: MOUSE, Strain/Sex: (A/J X TSG-P53)F1/FEMALE, Target Tissue: Type of Lesion: LUNG: ADENOMA, Dose [Carcinogen]: 10 UMOL ONCE) was 100%, 36%, 64%, p<0.0001. For the same compound, the “tumour outcome (control, treated, inhibition, significance)” value (5 UMOL/D FOR 4 CONSECUTIVE DAYS (STUDY DURATION: 17 WK), Route [Inhibitor]: GAVAGE, Species: MOUSE, Strain/Sex: STRAIN-A/FEMALE, Target Tissue: Type of Lesion: LUNG: ADENOMA, Dose [Carcinogen]: 10 UMOL ONCE 2 HR POST LAST AGENT DOSE) was 100%, 89%, 11%, not calculated, the “tumour outcome (control, treated, inhibition, significance)” value (5 UMOL/D FOR 4 CONSECUTIVE DAYS PRIOR TO CARCINOGEN DOSE (STUDY DURATION: 18 WK), Route [Inhibitor]: GAVAGE, Species: MOUSE, Strain/Sex: STRAIN-A/FEMALE, Target Tissue: Type of Lesion: LUNG: ADENOMA, Dose [Carcinogen]: 10 UMOL ONCE) was 100%, 100%, 0%, not significant and the “tumour outcome (control, treated, inhibition, significance)” value (25 UMOL 1/D FOR 4 D ADMINISTERED PRIOR TO CARCINOGEN TREATMENT (STUDY DURATION: 116 D), Route [Inhibitor]: GAVAGE, Species: MOUSE, Strain/Sex: STRAIN-A, Target Tissue: Type of Lesion: LUNG: ADENOMA, Dose [Carcinogen]: 10 UMOL ONCE 2 HR AFTER FINAL DOSE OF INHIBITOR) was 100%, 30%, 70%, p<0.01. The “tumour outcome (control, treated, inhibition, significance)” value (25 UMOL/D FOR 4 CONSECUTIVE DAYS (STUDY DURATION: 17 WK), Route [Inhibitor]: GAVAGE, Species: MOUSE, Strain/Sex: STRAIN-A/FEMALE, Target Tissue: Type of Lesion: LUNG: ADENOMA, Dose [Carcinogen]: 10 UMOL ONCE 2 HR POST LAST AGENT DOSE) was 100%, 30%, 70%, p<0.01, the “tumour outcome (control, treated, inhibition, significance)” value (652 PPM IN DIET FOR 22 WK BEGINNING 1 WK PRIOR TO CARCINOGEN TREATMENT (STUDY DURATION: 98 WK), Route [Inhibitor]: ORAL, Species: RAT, Strain/Sex: F344/MALE, Target Tissue: Type of Lesion: LUNG: TUMOR, Dose [Carcinogen]: 1.5 MG/KG BW 3/WK FOR 20 WK) was 22/33 (67%), 6/36 (17%), 75%, p<0.001 and the “tumour outcome (control, treated, inhibition, significance)” value (652 PPM IN DIET FOR 22 WK BEGINNING 1 WK PRIOR TO CARCINOGEN TREATMENT (STUDY DURATION: 98 WK), Route [Inhibitor]: ORAL, Species: RAT, Strain/Sex: F344/MALE, Target Tissue: Type of Lesion: NASAL CAVITY: TUMOR, Dose [Carcinogen]: 1.5 MG/KG BW 3/WK FOR 20 WK) was 28/36 (78%), 17/36 (47%), 40%, not significant. For the same compound, the “tumour outcome (control, treated, inhibition, significance)” value (1304 PPM IN DIET FOR 22 WK BEGINNING 1 WK PRIOR TO CARCINOGEN DOSE (STUDY DURATION: 98 WK), Route [Inhibitor]: ORAL, Species: RAT, Strain/Sex: F344/MALE, Target Tissue: Type of Lesion: NASAL CAVITY: TUMOR, Dose [Carcinogen]: 1.5 MG/KG BW 3/WK FOR 20 WK) was 28/36 (78%), 21/36 (58%), 26%, not significant, the “tumour outcome (control, treated, inhibition, significance)” value (1304 PPM IN DIET FOR 22 WK BEGINNING 1 WK PRIOR TO CARCINOGEN TREATMENT (STUDY DURATION: 98 WK), Route [Inhibitor]: ORAL, Species: RAT, Strain/Sex: F344/MALE, Target Tissue: Type of Lesion: LUNG: TUMOR, Dose [Carcinogen]: 1.5 MG/KG BW 3/WK FOR 20 WK) was 22/33 (67%), 3/36 (8%), 88%, p<0.0001 and the outcome (Dose [Inhibitor]: 3 UMOL/G DIET BEGINNING 1 WK PRIOR TO FIRST CARCINOGEN DOSE (STUDY DURATION: 104 WK), Route [Inhibitor]: ORAL, Species: RAT, Strain/Sex: F344/MALE, Target Tissue: Type of Lesion: ADRENAL GLAND: ADENOMA, Dose [Carcinogen]: 1.76 MG/KG 3/WK FOR 20 WK) was 0/40 (0%), 2/40 (5%), -5%, not calculated.
